From PubChem BioAssay (NCI) come the findings set out here.

Holding throughout (experiment): NCI anticancer screen, dose series, 48 h
The subject of assay [1] is A498 renal.
The test system of assay [2] is CCRF-CEM leukemia.
Assay [3] has as its system NCI-H226 lung.
Assay [4] has as its system NCI-H23 lung.
Assay [5] has as its system OVCAR-8 ovarian.
In assay [6] the test system is SF-539 CNS.
In assay [7] the test system is SN12C renal.
Assay [8] deals with SNB-19 CNS.
The test system of assay [9] is SNB-75 CNS.
Assay [10] deals with TK-10 renal.

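Dose response: 5 concentrations. Exposure: 48 h. Format: 96-well plates. Endpoint: linear interpolation; highest concentration if not reached. GI50: concentration for 50% inhibition of growth. TGI denotes the concentration required for complete inhibition of growth.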

With `COc1ccc2c(c1)CCc1c(CO)c(COC(=O)NC(C)C)n(C)c1-2`, the TGI in [1] was 77.5 µM; in [2] it was 12.5 µM; in assay [3], 14.6 µM; in assay [4], 22.1 µM; in assay [5], 21.2 µM; in assay [6] it was above 87 µM. The TGI in [7] is 45.8 µM; in [8], 56.1 µM; in assay [9], above 27.3 µM; in [10] it was above 100 µM.

With `CC(C)=C1CCC(CN2CCOCC2)C1=O` (centres undefined), the TGI in assay [1] was determined as 52.3 µM; in assay [2], 7.9 µM; in [3], 46.1 µM; in assay [4] it was 36.7 µM; in assay [5], 27.8 µM; in [6], 31.9 µM. Further, the TGI in assay [7] was 16.7 µM; in assay [8], above 91.9 µM; in assay [9], 18 µM; in assay [10], 19 µM.

Turning to `COc1ccc2nc3cccc([N+](=O)[O-])c3c(NCCNCCN(C)C)c2c1`, the GI50 in [1] was 0.201 µM; in assay [2], 0.0384 µM; in [3], 0.219 µM; in [4], 1.72 µM; in assay [5], 0.044 µM; in assay [6], 0.199 µM. The GI50 was 0.141 µM in [7], 0.223 µM in [8], 0.158 µM in assay [9] and 0.194 µM in assay [10]. The TGI in assay [1] turned out to be 0.45 µM; in [2] it was 0.29 µM; in [3] it was 0.629 µM; in [4], 5.26 µM; in assay [5] it was 0.277 µM; in assay [6], 0.429 µM. For the same compound, the TGI came to 0.592 µM in assay [7], 1.17 µM in assay [8], 0.386 µM in [9] and 1.09 µM in [10].

As for `C[C@H](NC(=O)c1c(C(F)F)nn(C)c1Oc1cccc(C(F)(F)F)c1)c1ccc(C(=O)O)cc1`, the GI50 in assay [1], in [2], in assay [3], in assay [4], in assay [5] and in [6] was above 100 µM each time. Moreover, the GI50 in assay [7], in assay [8], in assay [9] and in assay [10] was above 100 µM in each case. The TGI in assay [1], in [2], in [3], in assay [4], in [5] and in [6] was above 100 µM throughout. In addition, the TGI in assay [7], in assay [8], in assay [9] and in assay [10] was above 100 µM throughout.

`COc1cccc2nc3c(C(=O)NCCN(C)C)cccc3nc12`: the TGI in assay [1] is 27.3 µM; in [2], 25.7 µM; in [3] it was 20.2 µM; in assay [4], 27.2 µM; in [5], above 88 µM; in assay [6], 17.1 µM. Moreover, the TGI in assay [7] is above 72.3 µM; in assay [8], above 91.8 µM; in [9], above 47.9 µM; in [10], 61 µM.

Take `CCOc1ccc(C(C)=O)cc1NC(=O)c1cccc(-c2nnn(CC)n2)c1`: the GI50 in assay [1] is 0.803 µM; in assay [2], 0.937 µM; in [3], 11.2 µM; in assay [4], 0.646 µM; in assay [5] it was 1.29 µM; in [6], 0.346 µM. Moreover, the GI50 in assay [7] was 5.8 µM; in [8], 1.29 µM; in [9], 0.209 µM; in [10], 14.3 µM. The TGI was 24 µM in [1]; above 100 µM in assay [2]; above 100 µM in [3]; 19 µM in assay [4]; above 100 µM in assay [5]; 3.54 µM in [6]. Further, the TGI is above 100 µM in assay [7], 76.6 µM in [8], 12.7 µM in assay [9] and 50.3 µM in assay [10].

As for `CCC(C)(O)c1cn(-c2ccc(S(=O)(=O)O)cc2)nn1` (centres undefined), the TGI in [1], in [2], in assay [3], in [4], in [5] and in [6] was above 100 µM in each case. The TGI in assay [7], in [8], in assay [9] and in [10] was above 100 µM throughout.

Turning to `COc1cc2c3c(c1OC)C(=O)C=C3N(S(=O)(=O)c1ccc(C)cc1)CC2`, the TGI in [1], in assay [2], in [3], in assay [4], in [5] and in assay [6] was above 100 µM each time. For the same compound, the TGI in assay [7], in [8], in assay [9] and in assay [10] was above 100 µM throughout.

As to `CC/C(Cc1ccccc1)=C(/c1ccc(O)cc1)c1ccc(OCCN2CCCC2)cc1`, the GI50 is 1.27 µM in [1]; 1.83 µM in assay [2]; 1.77 µM in [3]; 1.72 µM in [4]; 2.39 µM in assay [5]; 1.67 µM in [6]. In addition, the GI50 in assay [7] is 1.88 µM; in assay [8], 1.97 µM; in assay [9], 1.31 µM; in assay [10] it was 1.75 µM. The TGI worked out at 2.72 µM in assay [1]; 4.16 µM in assay [2]; 3.58 µM in assay [3]; 3.53 µM in assay [4]; 5.39 µM in assay [5]; 3.21 µM in assay [6]. Besides, the TGI in assay [7] is 3.88 µM; in [8] it was 3.93 µM; in assay [9] it was 2.98 µM; in assay [10], 3.34 µM.

As for `CCCCCCCCCCOC(=O)c1cc[n+](C)cc1`, the TGI in assay [1] worked out at 36.9 µM; in assay [2], 37.7 µM; in assay [3], 32.7 µM; in assay [4] it was 35 µM; in assay [5], 31.4 µM; in assay [6] it was 29.8 µM. For the same compound, the TGI in [7] amounted to 30.7 µM; in assay [8], 30.4 µM; in assay [9], 34.3 µM; in assay [10], 31.8 µM.

With `NCCOc1ncccc1/C=C1\c2ccccc2-c2ccc([N+](=O)[O-])cc21`, the GI50 is 0.158 µM in assay [1]; 0.0181 µM in assay [2]; 0.11 µM in assay [3]; 0.0479 µM in assay [4]; 0.0686 µM in assay [5]; 0.135 µM in assay [6]. Moreover, the GI50 is 0.0284 µM in [7], 0.0356 µM in [8], 0.0488 µM in [9] and 0.126 µM in [10]. In addition, the TGI in assay [1] came out at 0.578 µM; in assay [2], 0.0973 µM; in assay [3], 0.366 µM; in assay [4] it was 0.413 µM; in [5] it was 0.705 µM; in assay [6], 0.362 µM. Further, the TGI was 0.178 µM in assay [7], 1.04 µM in [8], 0.437 µM in assay [9] and 0.282 µM in assay [10].

For the compound `NC(CSC(c1ccccc1)(c1ccccc1)c1ccc(F)cc1)C(=O)O` (centres undefined), the GI50 in [1] is 0.344 µM; in [2], 0.289 µM; in assay [3], 5.64 µM; in assay [4], 0.657 µM; in assay [5], 0.493 µM; in assay [6], 0.285 µM. The GI50 in assay [7] was 0.564 µM; in assay [8], 0.458 µM; in [9], 1.74 µM; in assay [10], 13.3 µM. The TGI is 33.8 µM in [1]; above 100 µM in [2]; above 76.3 µM in assay [3]; above 28.3 µM in assay [4]; 41.7 µM in assay [5]; 0.921 µM in assay [6]. Besides, the TGI in assay [7] was above 70.7 µM; in assay [8], above 47.4 µM; in [10], above 100 µM.

On to `COc1ccc2[nH]c(C(=O)OCc3ccc4cccc(O)c4n3)cc2c1`, for which the GI50 is 2.65 µM in assay [1]; 0.148 µM in assay [2]; 1.4 µM in [3]; 1.44 µM in assay [4]; 1.38 µM in [5]; 1.27 µM in assay [6]. Moreover, the GI50 in assay [7] was 1.18 µM; in assay [8], 2.83 µM; in assay [9], 1.06 µM; in assay [10], 1.81 µM. Besides, the TGI in [1] is 5.57 µM; in assay [2], 1.11 µM; in assay [3], 3.14 µM; in assay [4], 3.07 µM; in assay [5], 4.04 µM; in assay [6], 2.53 µM. Moreover, the TGI in assay [7] was 2.54 µM; in [8] it was 11.2 µM; in assay [9], 2.3 µM; in assay [10], 3.27 µM.

As to `NC(=S)N/N=C1/CN(c2ccc(Cl)c(Cl)c2)CC(=O)C1c1nc2ccccc2s1` (centres undefined), the TGI in [1], in [2], in assay [3], in assay [4], in assay [5] and in [6] was above 100 µM throughout. Also, the TGI in [7], in assay [8], in assay [9] and in assay [10] was above 100 µM throughout.
